Experimental data published in patent US9884832B2 (priority 2011, dated 2018).

The molecules below were run against AM2 S31 (wild-type serine at position 31 in the M2 protein), influenza virus A/Udorn/72 (Influenza A virus, UniProt P0DOF5) (assay: cell-based). Conditions: 100 uM; Xenopus oocytes; activity range class.
AM2 S31 (wild-type serine at position 31 in the M2 protein), influenza virus A/Udorn/72, sequence (P0DOF5 whole entry, looked up): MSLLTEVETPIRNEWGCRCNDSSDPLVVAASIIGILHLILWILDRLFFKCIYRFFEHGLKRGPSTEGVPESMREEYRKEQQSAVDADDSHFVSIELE
For `F[B-](F)(F)c1ccc(CNC23CC4CC(CC(C4)C2)C3)cc1.[K+]` [Example 2a], the “S31 OOcyte Inhibition at 100 uM (%)” value was “A ((A)=31-95%)”.

Same assay, conditions: 100 uM; Xenopus oocytes; activity range class; read-out: S31 OOcyte Inhibition at 100 uM (%)
With `CCOc1ccc(CNC23CC4CC(CC(C4)C2)C3)cc1` [Example 1a, Adamantan-1-yl-(4-ethoxy-benzyl)-amine] the inhibition at 100 µM was 0 to 30%. `Brc1cccc(CNC23CC4CC(CC(C4)C2)C3)c1` [Example 3a, N-(3-Bromobenzyl)adamantan-1-amine] showed an inhibition at 100 µM of 31 to 95%. `FC(F)(F)Oc1ccc(CNC23CC4CC(CC(C4)C2)C3)cc1` [Example 4a, Adamantan-1-yl-(4-trifluoromethoxy-benzyl)-amine] gave an inhibition at 100 µM of 0 to 30%. With `FC(F)(F)c1ccc(CNC23CC4CC(CC(C4)C2)C3)cc1` [Example 5a, Adamantan-1-yl-(4-trifluoromethyl-benzyl)-amine] the inhibition at 100 µM was 0 to 30%. With `C[Si](C)(C)c1ccc(CNC23CC4CC(CC(C4)C2)C3)cc1` [Example 6a, Adamantan-1-yl-(4-trimethylsilanyl-benzyl)-amine] the inhibition at 100 µM was 0 to 30%. For `CC(C)(C)c1ccc(CNC23CC4CC(CC(C4)C2)C3)cc1` [Example 7a, N-(4-(tert-Butyl)benzyl)adamantan-1-amine methanesulfonate], the inhibition at 100 µM was 0 to 30%. `Cc1ccc(CNC23CC4CC(CC(C4)C2)C3)cc1` [Example 8a, N-(4-Methylbenzyl)adamantan-1-amine] showed an inhibition at 100 µM of 31 to 95%. With `c1cc(C2CC2)ccc1CNC12CC3CC(CC(C3)C1)C2` [Example 9a, N-(4-Cyclopropylbenzyl)adamantan-1-amine] the inhibition at 100 µM was 31 to 95%. `c1cc(C2CCCCC2)ccc1CNC12CC3CC(CC(C3)C1)C2` [Example 10a, Adamantan-1-yl-(4-cyclohexyl-benzyl)-amine] showed an inhibition at 100 µM of 0 to 30%. For `COc1ccc(C(C)NC23CC4CC(CC(C4)C2)C3)cc1` (centres unmarked) [Example 11a, N-(1-(4-methoxyphenyl)ethyl)adamantan-1-amine], the inhibition at 100 µM was 31 to 95%. For `CCSc1ccc(CNC23CC4CC(CC(C4)C2)C3)cc1` [Example 12a, N-(4-(ethylthio)benzyl)adamantan-1-amine], the inhibition at 100 µM was 0 to 30%. Molecule `c1ccc(Oc2ccc(CNC34CC5CC(CC(C5)C3)C4)cc2)cc1` [Example 13a, Adamantan-1-yl-(4-phenoxy-benzyl)-amine] has an inhibition at 100 µM of 31 to 95%. With `COc1cccc(COc2ccc(CNC34CC5CC(CC(C5)C3)C4)cc2)c1` [Example 14a, Adamantan-1-yl-[4-(3-methoxy-benzyloxy)-benzyl]-amine] the inhibition at 100 µM was 0 to 30%. Molecule `COc1ccccc1COc1ccc(CNC23CC4CC(CC(C4)C2)C3)cc1` [Example 15a, Adamantan-1-yl-[4-(2-methoxy-benzyloxy)-benzyl]-amine] has an inhibition at 100 µM of 0 to 30%. `Clc1ccc(COc2ccc(CNC34CC5CC(CC(C5)C3)C4)cc2)cc1` [Example 16a, Adamantan-1-yl-[4-(4-chloro-benzyloxy)-benzyl]-amine] gave an inhibition at 100 µM of 31 to 95%.

Same assay, conditions: Table 1; 100 uM; Xenopus oocytes, pH 5.5, -20 mV; read-out: S31 OOcyte Inhibition at 100 uM (%)
`c1ncc(CCNCC23CC4CC(CC(C4)C2)C3)[nH]1` [Example 1, Adamantan-1-ylmethyl-[2-(3H-imidazol-4-yl)-ethyl]-amine] was tested, and the inhibition at 100 µM was 0 to 30%. Work on `OCC(Cc1cnc[nH]1)NCC12CC3CC(CC(C3)C1)C2` (centres unmarked) [Example 2, 2-[(adamantan-1-ylmethyl)-amino]-3-(3H-imidazol-4-yl)-propan-1-ol] yielded an inhibition at 100 µM of 0 to 30%. `COC(=O)C(Cc1cnc[nH]1)NCC12CC3CC(CC(C3)C1)C2` (centres unmarked) [Example 3, 2-[(Adamantan-1-ylmethyl)-amino]-3-(3H-imidazol-4-yl)-propionic acid methyl ester] gave an inhibition at 100 µM of 0 to 30%. For `CC(NCc1ccc(O)cc1)C12CC3CC(CC(C3)C1)C2` (centres unmarked) [Example 4, 4-[(1-Adamantan-1-yl-ethylamino)-methyl]-phenol], the inhibition at 100 µM was 31 to 95%. In the case of `N=C(Nc1ccc(O)cc1)C12CC3CC(CC(C3)C1)C2` [Example 5], the inhibition at 100 µM is reported as 31 to 95%. With `Oc1ccc(/C=N/C23CC4CC(CC(C4)C2)C3)cc1` [Example 6] the inhibition at 100 µM was 31 to 95%. Molecule `Oc1ccc(/C=N/C23CC4CC(CC(C4)C2)C3)c(O)c1` [Example 7] has an inhibition at 100 µM of 31 to 95%. For `c1ccc(CNC23CC4CC(CC(C4)C2)C3)cc1` [Example 8, Adamantan-1-yl-benzyl-amine], the inhibition at 100 µM was 31 to 95%. Molecule `Oc1ccc(CNC23CC4CC(CC(C4)C2)C3)cc1` [Example 9, 4-(Adamantan-1-ylaminomethyl)-phenol] has an inhibition at 100 µM of 31 to 95%. Work on `Nc1ccc(CNC23CC4CC(CC(C4)C2)C3)cc1` [Example 11, Adamantan-1-yl-(4-amino-benzyl)-amine] yielded an inhibition at 100 µM of 31 to 95%. `CC(C)(C)OC(=O)Nc1ccc(CNC23CC4CC(CC(C4)C2)C3)cc1` [Example 12, [4-(Adamantan-1-ylaminomethyl)-phenyl]carbamic acid tert-butyl ester] was tested, and the inhibition at 100 µM was 0 to 30%. `NCc1ccc(CNC23CC4CC(CC(C4)C2)C3)cc1` [Example 13, Adamantan-1-yl-(4-aminomethyl-benzyl)-amine] showed an inhibition at 100 µM of 0 to 30%. `N#Cc1ccc(CNC23CC4CC(CC(C4)C2)C3)cc1` [Example 14, 4-(Adamantan-1-ylaminomethyl)-benzonitrile] showed an inhibition at 100 µM of 31 to 95%. With `c1cc(-c2nnn[nH]2)ccc1CNC12CC3CC(CC(C3)C1)C2` [Example 15, Adamantan-1-yl-[4-(1H-tetrazol-5-yl)-benzyl]amine] the inhibition at 100 µM was 0 to 30%. Molecule `COc1ccc(CNC23CC4CC(CC(C4)C2)C3)cc1` [Example 16, Adamantan-1-yl-(4-methoxy-benzyl)-amine] has an inhibition at 100 µM of 31 to 95%. With `CC(=O)Nc1ccc(CNC23CC4CC(CC(C4)C2)C3)cc1` [Example 17, N-[4-(Adamantan-1-ylaminomethyl)-phenyl]-acetamide] the inhibition at 100 µM was 0 to 30%. With `NC(=O)c1ccc(CNC23CC4CC(CC(C4)C2)C3)cc1` [Example 18, 4-(Adamantan-1-ylaminomethyl)-benzamide] the inhibition at 100 µM was 0 to 30%. `O=[N+]([O-])c1ccc(CNC23CC4CC(CC(C4)C2)C3)cc1` [Example 19, Adamantan-1-yl-(4-nitro-benzyl)-amine] showed an inhibition at 100 µM of 31 to 95%. `CCOc1ccc(CNC23CC4CC(CC(C4)C2)C3)cc1` [Example 20, Adamantan-1-yl-(4-ethoxy-benzyl)-amine] gave an inhibition at 100 µM of 0 to 30%. With `c1coc(COc2ccc(CNC34CC5CC(CC(C5)C3)C4)cc2)c1` [Example 21, Adamantan-1-yl-[4-(furan-2-ylmethoxy)-benzyl]-amine] the inhibition at 100 µM was 31 to 95%.

Same assay, conditions: Table 3; 100 uM; Xenopus oocytes, pH 5.5, -20 mV; read-out: S31 OOcyte Inhibition at 100 uM (%)
Molecule `Clc1ccc(CNC23CC4CC(CC(C4)C2)C3)cc1` [Example 1b, N-(4-Chlorobenzyl)adamantan-1-amine] has an inhibition at 100 µM of 31 to 95%. For `Oc1cc(I)ccc1CNC12CC3CC(CC(C3)C1)C2` [Example 2b], the inhibition at 100 µM was 31 to 95%. `CC(NC12CC3CC(CC(C3)C1)C2)c1ccc(C(C)(C)C)cc1` (centres unmarked) [Example 3b, N-(1-(4-(tert-butyl)phenyl)ethyl)adamantan-1-amine] was tested, and the inhibition at 100 µM was 0 to 30%. `CC(NC12CC3CC(CC(C3)C1)C2)c1ccc(-c2ccccc2)cc1` (centres unmarked) [Example 4b, N-(1-([1,1′-biphenyl]-4-yl)ethyl)adamantan-1-amine] showed an inhibition at 100 µM of 31 to 95%. `Cc1csc(-c2ccc(CNC34CC5CC(CC(C5)C3)C4)cc2)c1` [Example 5b, N-(4-(4-Methylthiophen-2-yl)benzyl)adamantan-1-amine] gave an inhibition at 100 µM of 0 to 30%. `Oc1cc(F)ccc1CNC12CC3CC(CC(C3)C1)C2` [Example 6b] gave an inhibition at 100 µM of 31 to 95%. Work on `Oc1cc(-c2ccco2)ccc1CNC12CC3CC(CC(C3)C1)C2` [Example 7b, 2-((-Adamantan-1-ylamino)methyl)-5-(furan-2-yl)phenol] yielded an inhibition at 100 µM of 0 to 30%. With `Oc1cc(-c2ccsc2)ccc1CNC12CC3CC(CC(C3)C1)C2` [Example 8b] the inhibition at 100 µM was 0 to 30%. Work on `Oc1cc(Cl)ccc1CNC12CC3CC(CC(C3)C1)C2` [Example 9b, 2-((-Adamantan-1-ylamino)methyl)-5-chlorophenol] yielded an inhibition at 100 µM of 31 to 95%. `Clc1nc(CNC23CC4CC(CC(C4)C2)C3)ns1` [Example 10b, N-((5-chloro-1,2,4-thiadiazol-3-yl)methyl)adamantan-1-amine] gave an inhibition at 100 µM of 31 to 95%. Work on `c1csc(-c2nc(CNC34CC5CC(CC(C5)C3)C4)cs2)c1` [Example 11b, N-((2-(thiophen-2-yl)thiazol-4-yl)methyl)adamantan-1-amine] yielded an inhibition at 100 µM of 0 to 30%. Molecule `Cc1nc(CNC23CC4CC(CC(C4)C2)C3)cs1` [Example 12b, N-((2-methylthiazol-4-yl)methyl)adamantan-1-amine] has an inhibition at 100 µM of 31 to 95%. `Clc1ncc(CNC23CC4CC(CC(C4)C2)C3)s1` [Example 13b, N-((2-chlorothiazol-5-yl)methyl)adamantan-1-amine] was tested, and the inhibition at 100 µM was 31 to 95%. `FC(F)(F)c1nnc(CNC23CC4CC(CC(C4)C2)C3)o1` [Example 14b, N-((5-(trifluoromethyl)-1,3,4-oxadiazol-2-yl)methyl)adamantan-1-amine] gave an inhibition at 100 µM of 0 to 30%. `COc1ccccc1-c1nc(CNC23CC4CC(CC(C4)C2)C3)no1` [Example 15b, N-((5-(2-methoxyphenyl)-1,2,4-oxadiazol-3-yl)methyl)adamantan-1-amine] gave an inhibition at 100 µM of 0 to 30%. Molecule `Cc1ncc(CNC23CC4CC(CC(C4)C2)C3)s1` [Example 16b, N-((2-methylthiazol-5-yl)methyl)adamantan-1-amine] has an inhibition at 100 µM of 0 to 30%. `Cc1nnc(CNC23CC4CC(CC(C4)C2)C3)o1` [Example 17b, N-((5-methyl-1,3,4-oxadiazol-2-yl)methyl)adamantan-1-amine] was tested, and the inhibition at 100 µM was 0 to 30%. `Cn1cc(CNC23CC4CC(CC(C4)C2)C3)nn1` [Example 18b, N-((1-methyl-1H-1,2,3-triazol-4-yl)methyl)adamantan-1-amine] was tested, and the inhibition at 100 µM was 0 to 30%. Work on `Nc1ncc(CNC23CC4CC(CC(C4)C2)C3)s1` [Example 19b] yielded an inhibition at 100 µM of 0 to 30%. `CC(C)(C)c1ncc(CNC23CC4CC(CC(C4)C2)C3)s1` [Example 20b, N-((2-(tert-butyl)thiazol-5-yl)methyl)adamantan-1-amine] gave an inhibition at 100 µM of 0 to 30%.
